From publication PMC6792352, “Limited Chemical Structural Diversity Found to Modulate Thyroid Hormone Receptor in the Tox21 Chemical Library” (Environmental Health Perspectives, 2019) come the findings set out here.

Where a name gives a salt, the structure may show the parent alone.

One data set is described as follows: in vitro. Particulars: rat, gh3-tre-luc cells, AC50 (uM) modified / 1000.
Broadly, the CC50 is the concentration giving 50% cytotoxicity. Compound `CCCCCCCCCCC[C@@H](C[C@@H]1OC(=O)[C@H]1CCCCCC)OC(=O)[C@H](CC(C)C)NC=O` [Orlistat] returned a CC50 at 24 h greater than 50 µM. For `COc1ccc2c(c1)OC(C)(C)C(c1ccccc1)C2c1ccc(OCCN2CCCC2)cc1` (stereo not shown) [Ormeloxifene], the CC50 at 24 h was 6.42 µM. The same measure, in the same setting: for `COc1cc(C)c(Cc2cnc(N)nc2N)cc1OC` [Ormetoprim] the value was greater than 50 µM; for `Cc1ncc([N+](=O)[O-])n1CC(O)CCl` (stereo not shown) [Ornidazole], greater than 20 µM; for `O=C(O)c1cc(=O)[nH]c(=O)[nH]1` [Orotic acid], greater than 90 µM.

On to `Nc1ccccc1S(=O)(=O)O` [Orthanilic acid], for which the CC50 at 24 h is greater than 90 µM. `O=C(Nc1ccc(O)cc1)c1ccccc1O` [Osalmid] yielded a CC50 at 24 h greater than 50 µM. Consider `CCOC(=O)C1=C[C@@H](OC(CC)CC)[C@H](NC(C)=O)[C@@H](N)C1` [Oseltamivir tartrate], for which the CC50 at 24 h was greater than 50 µM.

The compound `CCCCCCCCOc1ccccc1C(=O)Nc1ccc(C(=O)OCC[N+](C)(CC)CC)cc1` [Otilonium bromide] yielded a CC50 at 24 h of 22.8 µM. This lies in the double-digit micromolar range. As to `C[C@@H]1O[C@@H](O[C@H]2C[C@@H](O)[C@]3(CO)[C@H]4[C@H](O)C[C@]5(C)[C@@H](C6=CC(=O)OC6)CC[C@]5(O)[C@@H]4CC[C@]3(O)C2)[C@H](O)[C@H](O)[C@H]1O` [Ouabain], the CC50 at 24 h was greater than 80 µM. In turn, `CC(=O)N1C[C@H](O)C[C@H]1C(=O)O` [Oxaceprol] showed a CC50 at 24 h greater than 50 µM. The compound `O=C1CCCCCCCCCCCCCCCO1` [Oxacycloheptadecan-2-one] yielded a CC50 at 24 h greater than 90 µM. Same read-out and setting: for `CCN(CC)CCc1nc(-c2ccccc2)no1` [Oxalamine citrate] the value was greater than 20 µM; for `CC(C)NCC1CCc2cc(CO)c([N+](=O)[O-])cc2N1` (stereo not shown) [Oxamniquine], greater than 20 µM.

`C[N+]1(CC2COC(c3ccccc3)(C3CCCCC3)O2)CCCCC1` (stereo not shown) [Oxapium iodide] gave a cytotoxic concentration (CC50) at 24 h greater than 50 µM. On to `O=C(O)CCc1nc(-c2ccccc2)c(-c2ccccc2)o1` [Oxaprozin], for which the CC50 at 24 h was greater than 50 µM.

For `O=c1[nH]c2ccccc2n1CCCN1CCN(C(c2ccccc2)c2ccccc2)CC1` [Oxatomide], the CC50 at 24 h was determined as 20.3 µM.

In turn, `O=C1Nc2ccc(Cl)cc2C(c2ccccc2)=NC1O` (stereo not shown) [Oxazepam] registered a CC50 at 24 h greater than 80 µM. Consider `CCC12COCN1COC2` [Oxazolidine-E], for which the CC50 at 24 h was greater than 90 µM. Turning to `CCO/C=C1\N=C(c2ccccc2)OC1=O` [Oxazolone], it took 64.5 µM to reach half-maximal cytotoxicity (CC50 at 24 h). For the compound `NC(=O)N1c2ccccc2CC(=O)c2ccccc21` [Oxcarbazepine], the CC50 at 24 h turned out to be 14.5 µM.

Turning to `CCN(CC)CCOCCOC(=O)C(CC)(CC)c1ccccc1` [Oxeladin citrate], the midpoint of cytotoxicity, the CC50 at 24 h, lay at 27.1 µM. This CC50 at 24 h lies about 1.9-fold higher than the previous one. Turning to `CC[C@H]1C[C@H]2[C@@H]3CCC4=CC(=O)CC[C@@H]4[C@H]3CC[C@]2(C)[C@H]1O` [Oxendolone], the CC50 at 24 h was greater than 50 µM.

`CN(C(=O)CN(CCO)CC(=O)N(C)C(C)(C)Cc1ccccc1)C(C)(C)Cc1ccccc1` [Oxethazaine] yielded a CC50 at 24 h of 16.2 µM.

Consider `COC(=O)Nc1nc2ccc([S+]([O-])c3ccccc3)cc2[nH]1` (stereo not shown) [Oxfendazole], for which the CC50 at 24 h was greater than 50 µM. Regarding `N[C@H](C(=O)O)c1ccc(O)cc1` [Oxfenicine], the CC50 at 24 h is greater than 50 µM. In turn, `CCCOc1ccc2nc(NC(=O)OC)[nH]c2c1` [Oxibendazole] returned a CC50 at 24 h of 0.527 µM. The same measure, in the same setting: for `NC(=O)CN1CC(O)CC1=O` (stereo not shown) [Oxiracetam] the value was greater than 50 µM; for `CCn1cc(C(=O)O)c(=O)c2cc3c(cc21)OCO3` [Oxolinic acid], greater than 90 µM. For the compound `CC(CN(C)C)CN1c2ccccc2S(=O)(=O)c2ccccc21` (stereo not shown) [Oxomemazine hydrochloride], half-maximal cytotoxicity (CC50 at 24 h) was put at 37.7 µM. Regarding `C=CCOc1ccccc1OCC(O)CNC(C)C` (stereo not shown) [Oxprenolol hydrochloride], the CC50 at 24 h was greater than 20 µM. As for `CCN(CC)CC#CCOC(=O)C(O)(c1ccccc1)C1CCCCC1` (stereo not shown) [Oxybutynin chloride], the CC50 at 24 h was 15.3 µM. That is a double-digit micromolar value.

`CC1=C(C(=O)Nc2ccccc2)S(=O)(=O)CCO1` [Oxycarboxin]: the CC50 at 24 h was found to be 40.7 µM. In turn, `Cc1cc(C(C)(C)C)c(O)c(C)c1CC1=NCCN1` [Oxymetazoline] yielded a CC50 at 24 h greater than 50 µM.

Compound `COc1cc2[nH]c(C)c(CCN3CCN(c4ccccc4)CC3)c2cc1OC` [Oxypertine hydrochloride] returned a CC50 at 24 h of 23.2 µM. `CCCCC1C(=O)N(c2ccccc2)N(c2ccc(O)cc2)C1=O` (stereo not shown) [Oxyphenbutazone]: half-maximal cytotoxicity (CC50 at 24 h) was put at 3.72 µM. This CC50 at 24 h lies about 6.2-fold lower than the previous one. As for `CN1CCCN=C1COC(=O)C(O)(c1ccccc1)C1CCCCC1` (stereo not shown) [Oxyphencyclimine hydrochloride], the CC50 at 24 h was greater than 50 µM.

With `CC(=O)Oc1ccc(C2(c3ccc(OC(C)=O)cc3)C(=O)Nc3ccccc32)cc1` [Oxyphenisatin acetate], the CC50 at 24 h was greater than 50 µM. Consider `O=C1Nc2ccccc2C1(c1ccc(O)cc1)c1ccc(O)cc1` [Oxyphenisatin], for which the CC50 at 24 h is 61.2 µM. `CC[N+](C)(CC)CCOC(=O)C(O)(c1ccccc1)C1CCCCC1` (stereo not shown) [Oxyphenonium bromide] returned a CC50 at 24 h greater than 50 µM. Regarding `O=c1[nH]c(=O)c2c[nH]nc2[nH]1` [Oxypurinol], the CC50 at 24 h was greater than 90 µM. Still for that read-out and setting: for `CN(C)[C@@H]1C(O)=C(C(N)=O)C(=O)[C@@]2(O)C(O)=C3C(=O)c4c(O)cccc4[C@@](C)(O)[C@H]3[C@H](O)[C@@H]12` [Oxytetracycline hydrochloride] the value was greater than 90 µM; for `CN(C)[C@@H]1C(=O)C(C(N)=O)=C(O)[C@@]2(O)C(=O)C3=C(O)c4c(O)cccc4[C@@](C)(O)[C@H]3[C@H](O)[C@@H]12` [Oxytetracycline], greater than 90 µM; for `CC[C@H](C)[C@@H]1NC(=O)[C@H](Cc2ccc(O)cc2)NC(=O)[C@@H](N)CSSC[C@@H](C(=O)N2CCC[C@H]2C(=O)N[C@@H](CC(C)C)C(=O)NCC(N)=O)NC(=O)[C@H](CC(N)=O)NC(=O)[C@H](CCC(N)=O)NC1=O` [Oxytocin acetate], greater than 50 µM.

As for `O=C(O)/C=C/c1ccc(Cn2ccnc2)cc1` [Ozagrel hydrochloride], the CC50 at 24 h was greater than 20 µM. In turn, `NCC1(Cc2noc(=O)[nH]2)CCCCC1` [PD 0200347] displayed a cytotoxic concentration (CC50) at 24 h greater than 90 µM. `O=C(NOC[C@H](O)CO)c1ccc(F)c(F)c1Nc1ccc(I)cc1F` [PD 0325901]: the CC50 at 24 h was greater than 50 µM. In turn, `Cc1cc(CCN2CCN(c3nsc4ccccc34)CC2)cc2c1NC(=O)CC2(C)C` [PD 0343701] registered a half-maximal cytotoxic concentration (CC50) at 24 h of 46.9 µM. As for `Cc1oc(-c2ccccc2)nc1CCOc1cccc2c1ccn2CCC(=O)O` [PD-0333941], half-maximal cytotoxicity (CC50 at 24 h) was put at 18.9 µM. On the same count and under the same terms, with `O=C(N[C@H]1CN2CCC1CC2)c1cc2ccoc2cn1` [PHA-00543613] the figure was greater than 90 µM. For the compound `O=C(N[C@H]1CN2CCC1CC2)c1ccc2c(c1)OCCO2` [PHA-00568487], the CC50 at 24 h was greater than 90 µM.

For `CCC(C)N(C)C(=O)c1cc2ccccc2c(-c2ccccc2Cl)n1` (stereo not shown) [PK 11195], the midpoint of cytotoxicity, the CC50 at 24 h, lay at 48.6 µM. This lies in the double-digit micromolar range. On to `CC(=O)O[C@H]1C(=O)[C@@]2(C)[C@H]([C@H](OC(=O)c3ccccc3)[C@]3(O)C[C@H](OC(=O)[C@H](O)[C@@H](NC(=O)c4ccccc4)c4ccccc4)C(C)=C1C3(C)C)[C@]1(OC(C)=O)CO[C@@H]1C[C@@H]2O` [Paclitaxel], for which the CC50 at 24 h stood at 0.25 µM. Compared with the last compound, the CC50 at 24 h is about 190-fold lower. On the same count and under the same terms, for `CC(C)CCOC(=O)c1ccc(N(C)C)cc1` [Padimate] the value was greater than 50 µM; for `Cc1nc2n(c(=O)c1CCN1CCC(c3noc4cc(F)ccc34)CC1)CCCC2O` (stereo not shown) [Paliperidone], greater than 50 µM; for `COc1cc2c(cc1OC)-c1cc3ccc(OC)c(OC)c3c[n+]1CC2` [Palmatine chloride hydrate], greater than 90 µM. `CCCCCCCCCCCCCCCC(=O)NCCO` [Palmitoylethanolamide] returned a CC50 at 24 h greater than 50 µM. On the same count and under the same terms, for `O=C1c2cccc3c2[C@H](CCC3)CN1[C@@H]1CN2CCC1CC2` [Palonosetron hydrochloride] the value was 23.5 µM; for `CCOC(=O)Cn1cccc1-c1nc(-c2ccc(OC)cc2)c(-c2ccc(OC)cc2)s1` [Pamicogrel], greater than 50 µM; for `NCCC(O)(P(=O)(O)O)P(=O)(O)O` [Pamidronic acid], greater than 50 µM.

Take `O=C(O)c1cc2ccccc2c(Cc2c(O)c(C(=O)O)cc3ccccc23)c1O` [Pamoic acid]: the cytotoxic concentration (CC50) at 24 h is greater than 50 µM. Regarding `CC(=O)O[C@H]1C[C@@H]2CC[C@@H]3[C@H](CC[C@@]4(C)[C@H]3C[C@H]([N+]3(C)CCCCC3)[C@@H]4OC(C)=O)[C@@]2(C)C[C@@H]1[N+]1(C)CCCCC1` [Pancuronium bromide], the CC50 at 24 h was greater than 50 µM. Same read-out and setting: with `CC(C)(CO)C(O)C(=O)NCCCO` (stereo not shown) [Panthenol] the figure was greater than 90 µM.

Staying with this data set, now noted: rat, gh3-tre-luc cells, AC50 (uM) modified / 1000, Tox21_110001=Tox21_111131; viability, 1 nM T3 present, 24 h.
Compound `C[C@]12C/C(=C/O)C(=O)C[C@@H]1CC[C@@H]1[C@@H]2CC[C@@]2(C)[C@H]1CC[C@]2(C)O` [Oxymetholone] came in with a CC50 at 24 h greater than 50 µM.

The same data set, now with this note: rat, gh3-tre-luc cells, AC50 (uM) modified / 1000, Tox21_110001=Tox21_111324; viability, 1 nM T3 present, 24 h.
On to `NCCc1cc(O)c(O)cc1O` [Oxidopamine hydrochloride], for which the CC50 at 24 h is 45.2 µM.

The data set is the same for the next values; noted with them: rat, gh3-tre-luc cells, AC50 (uM) modified / 1000, Tox21_110001=Tox21_112760; viability, 1 nM T3 present, 24 h.
`C[C@]12CC[C@H]3[C@@H](CCC4=C(O)C(=O)CC[C@@H]43)[C@@H]1CC[C@@H]2OC(=O)CCC1CCCC1` [Oxabolone cipioncate] showed a CC50 at 24 h greater than 50 µM.

The same data set, now with this note: rat, gh3-tre-luc cells, AC50 (uM) modified / 1000, Tox21_110001=Tox21_200071; viability, 1 nM T3 present, 24 h.
On to `C[C@]12C/C(=C/O)C(=O)C[C@@H]1CC[C@@H]1[C@@H]2CC[C@@]2(C)[C@H]1CC[C@]2(C)O` [Oxymetholone], for which the half-maximal cytotoxic concentration (CC50) at 24 h is 67.3 µM.

Still in this data set, the particulars now being: rat, gh3-tre-luc cells, AC50 (uM) modified / 1000, Tox21_110001=Tox21_201731; viability, 1 nM T3 present, 24 h.
For the compound `CNC(=O)O/N=C(\SC)C(=O)N(C)C` [Oxamyl], the CC50 at 24 h was greater than 100 µM.

Staying with this data set, now noted: rat, gh3-tre-luc cells, AC50 (uM) modified / 1000, Tox21_110001=Tox21_301156; viability, 1 nM T3 present, 24 h.
`CNC(=O)O/N=C(\SC)C(=O)N(C)C` [Oxamyl]: the CC50 at 24 h is greater than 90 µM.

The same data set, now with this note: rat, gh3-tre-luc cells, AC50 (uM) modified / 1000, Tox21_110001=Tox21_301853; viability, 1 nM T3 present, 24 h.
In turn, `COCC(=O)N(c1c(C)cccc1C)N1CCOC1=O` [Oxadixyl] came in with a CC50 at 24 h greater than 90 µM.
